The target of assay [1] is IκB-α kinase. The experiment in a line: IκB-α kinase assay (filter assay of affinity enriched IκB-α kinase from LPS-activated HUVEC lysate). The conditions noted are these: Table 11, Enzyme Activity of Selected Compounds. It is filed as biochemical, human.
Assay [2] addresses CDK2 (Homo sapiens, UniProt P24941). The experiment in a line: biochemical. As to conditions: concentration required to inhibit CDK2 activity by 50%; 30 µM ATP, histone H1, 30°C for 30 min; read-out: IC50 (µg/mL) enzyme (converted). On the procedure: Compounds of this invention were assayed to determine their CDK2 inhibitory activity. The assay system (total volume of 50 µl) contained 50 mM Tris-HCl, pH 7.4, 10 mM MgCl2, 5 mM DTT, 1 µg of histone H1, 30 µM ATP (1 µCi of gamma^32P labeled ATP), 10 µg of BSA and 1 ng of purified CDK2. After incubation at 30°C for 30 min, the reaction was terminated by the addition of 10 µl of 10% TCA and the samples were blotted onto nitrocellulose filters. These filters were washed extensively in 10% TCA and assayed for radioactivity. Blanks contained no enzyme. […] After incubation at 30 min., the assay tubes were processed as above.

Assay [3] has as its system rat aortic smooth muscle cells. The experiment in a line: tissue or blood. It is filed as cell-based. As to conditions: read-out: IC50 (µg/mL) cells. On the procedure: (§1) Early passage rat aortic smooth muscle cells (CV Therapeutics Cell repository) were seeded in 48 well dishes (Falcon, […]) at a density of 20,000 cells/ml of DME containing 5% heat inactivated bovine serum. The cells were incubated in a standard tissue culture incubator for 48 hr. The medium was aspirated and the wells were replenished with 0.2 ml of fresh medium. […]

The test system of assay [4] is P388 - mouse lymphoid neoplasm. The experiment in a line: Cell proliferation assay, P388. The conditions noted are these: P388 cells, read-out: IC50 (µg/ml) for Inhibition of Cell Proliferation P 388. The class given is cell-based.
Assay [5] relates to Pancl human pancreatic adenocarcinoma. The experiment in a line: Cell proliferation assay, Pancl. The class given is cell-based. As to conditions: Pancl cells, read-out: IC50 (µg/ml) for Inhibition of Cell Proliferation Panel. On the procedure: as §1
(§2) Similar assays were performed using the following cell lines: P388 - mouse lymphoid neoplasm; L1210 - mouse lymphocytic leukemia; Caco2 human colon adenocarcinoma; MCF7 human breast adenocarcinoma; PupVSMC rat neonatal aortic smooth muscle cells; Ovcar human ovarian Carcinoma; Pancl human pancreatic adenocarcinoma; and HUVEC human umbilical cord endothelial cells.

Assay [6] relates to Ovcar human ovarian Carcinoma. The experiment in a line: Cell proliferation assay, Ovcar. It is filed as cell-based. As to conditions: Ovcar cells, read-out: IC50 (µg/ml) for Inhibition of Cell Proliferation OvC ar. On the procedure: as §1, §2
In assay [7] the test system is PupVSMC rat neonatal aortic smooth muscle cells. The experiment in a line: Cell proliferation assay, PupVSMC. It is filed as cell-based. How it is done:
(§3) Early passage rat aortic smooth muscle cells (CV Therapeutics Cell repository) were seeded in 48 well dishes (Falcon, […]) at a density of 20,000 cells/ml of DME containing 5% heat inactivated bovine serum. The cells were incubated in a standard tissue culture incubator for 48 hr. The medium was aspirated and the wells were replenished with 0.2 ml of fresh medium. Compounds of this invention were added at concentrations ranging from 100 to 0.37 µg/ml. After 48 hr incubation, the medium was aspirated and the cultures were treated with 0.2 ml of saline and 0.25 µl of phenazine methosulfate solution containing MTS (Cell Titer 96® Aqueous Non-radioactive cell proliferation assay kit, Catalog # G 5430, Promega, 2800 Woods Hollow Road, Madison, WI 53711-5399). […]
as §2

Assay [8] relates to neointima formation following balloon angioplasty in the rat carotid artery. The experiment in a line: Neointima formation following balloon angioplasty, rat carotid artery model. The conditions noted are these: 14 days recovery. The class given is in vivo. The source says: In this example, the left common carotid arteries of adult male rats (n=10 per experimental group) were surgically injured using a Fogarty arterial embolectomy catheter. Immediately after injury, the common carotid artery was bisected with a vascular clamp, thereby establishing an untreated and treated segment. A drug delivery catheter was then inserted into the distal half of the common carotid. After drug delivery, the catheter was removed and excess drug was washed out by removing the vascular clamp and re-establishing blood flow before closing the artery. […] The harvested tissue was sectioned and the neointimal area was digitized and measured with a computer planimetry system.

Assay [9] deals with MCF7 human breast adenocarcinoma. The experiment in a line: Cell proliferation assay, MCF7. It is filed as cell-based. As to conditions: MCF7 cells, read-out: IC50 (µg/ml) for Inhibition of Cell Proliferation MCF 7. On the procedure: as §1, §2
For assay [10], the system named is Caco2 human colon adenocarcinoma. The experiment in a line: cells. The class given is cell-based. As to conditions: Caco-2, read-out: IC50 (µg/ml) for Inhibition of Cell Proliferation Caco 2. On the procedure:
as §3, §2

Assay [11] relates to L1210 - mouse lymphocytic leukemia. The experiment in a line: cells. As to conditions: read-out: IC50 (µg/ml) for Inhibition of Cell Proliferation L 120. It is filed as cell-based. How it is done: as §3, §2
Assay [12] deals with mammalian cells in culture. As to conditions: literature; cited from earlier work.
Where [13] appears, read: inhibitory activity against the cell line, Table 9, unit inferred, read-out: PupVSMC.

Values after ≈ are worked out from the molar mass of the structure shown. Read-outs that look alike come from different tables or passages of the source. Some results are limits rather than exact numbers.

The molecule `CC(C)n1cnc2c(Nc3cccc(-c4ccc(C#N)cc4)c3)nc(N(CCO)CCO)nc21` gave an IC50 in [1] of 2.2 µM.

The molecule `CC(C)n1cnc2c(NCc3ccc(-c4ccccn4)cc3)nc(N(CCO)CCO)nc21` displayed an IC50 in assay [1] of 4.5 µM. With `COc1cccc(-c2ccc(CNc3nc(N(CCO)CCO)nc4c3ncn4C(C)C)cc2)c1`, the IC50 in [1] is more than 10 µM. In the case of `COc1ccc(-c2ccc(CNc3nc(N(CCO)CCO)nc4c3ncn4C(C)C)cc2)cc1`, in [1], the IC50 worked out at 11 µM. Take `CC(C)n1cnc2c(Nc3ccc(Br)cc3)nc(N(CCO)CCO)nc21`: the IC50 in assay [1] is 14 µM. Regarding `COC(=O)c1ccc(Cn2cnc3c(NCc4ccc(OC)cc4)nc(Cl)nc32)cc1`, the IC50 in assay [2] is more than 137 µM. Turning to `COc1ccc(CNc2nc(N(CCO)CCO)nc3c2ncn3C(C)C)cc1`, the IC50 in assay [3] (Rattus norvegicus, 48 h) amounted to 2.1 µg/mL (≈ 5.24 µM).

Turning to `COc1ccc(CNc2nc(Cl)nc3c2ncn3C(F)(F)F)cc1`, the IC50 in assay [2] was more than 168 µM. Molecule `CCN(CC)c1nc(NCc2ccc(-c3ccccc3)cc2)c2ncn(C(C)C)c2n1` gave an IC50 in [1] of more than 2.4 µM.

Take `CC(C)n1cnc2c(NCc3ccc(-c4ccccc4)cc3)nc(NCCO)nc21`: the IC50 in assay [1] came out at 2.5 µM. With `CC(C)n1cnc2c(NCc3ccc(Cl)cc3)nc(N(CCN)CCO)nc21`, the IC50 in assay [3] (concentration required to inhibit cell proliferation by 50%, rat aortic smooth muscle cells, 48 hr incubation, MTS) was found to be 0.2 µg/mL (≈ 0.495 µM). Consider `CC(C)n1cnc2c(NCc3ccc(Cl)cc3)nc(NCCNCCO)nc21`, for which the IC50 in assay [2] was 5 µM. In the case of `CC(C)n1cnc2c(NCc3ccc(S(N)(=O)=O)cc3)nc(NCCN)nc21`, the IC50 in assay [2] was 22.2 µM. On the same count and under the same terms, the value for `CC(C)Cn1cnc2c(NCc3ccc(C(F)(F)F)cc3)nc(N(CCO)CCO)nc21` was 130 µM; that for `CC(C)n1cnc2c(NCc3ccc(C(F)(F)F)cc3)nc(N(CCO)CCO)nc21` was 1.28 µM. For `COc1ccc(CNc2nc(N3CCOCC3)nc3c2ncn3C(C)C)cc1`, the IC50 was more than 5 µg/mL in [4], 5.5 µg/mL (≈ 14.4 µM) in assay [5] and 4 µg/mL (≈ 10.5 µM) in [6].

In the case of `CC(C)n1cnc2c(NCc3ccc(Cl)cc3)nc(N(CCN)CCO)nc21` [2-[(2-aminoethyl)(6-{[(4-chlorophenyl)methyl]amino}-9-(methylethyl)purin-2-yl)amino]ethan-1-ol], in assay [7] (setting [13]), the IC50 stood at 0.3 µg/mL (≈ 0.743 µM).

For `CC(C)n1cnc2c(NCc3ccc(Cl)cc3)nc(N(CCO)CCO)nc21` [2-[(2-hydroxyethyl)(6-{[(4-chlorophenyl)methyl]amino}-9-(methylethyl)purin-2-yl)amino]ethan-1-ol], the IC50 in assay [7] (setting [13]) amounted to 0.3 µg/mL (≈ 0.741 µM).

With `CC(C)n1cnc2c(NCc3ccc(-c4ccccc4)cc3)nc(N(CCO)CCO)nc21` [2-diethanolamino-6-(4-phenylbenzylamino)-9-isopropyl purine], the values for the IC50 in assay [4], in assay [1] and in assay [5] were less than 1 µg/mL, 1.1 µM and 1.3 µg/mL (≈ 2.91 µM), respectively.

Regarding `Clc1ccc(COc2nc(Cl)nc3[nH]cnc23)cc1` [4-chlorobenzyloxy; H; C1], the IC50 in [2] was 203 µM. As to `Cn1cnc2c(OCc3ccc(Cl)cc3)nc(Cl)nc21` [4-chlorobenzyloxy; Me; C1], the IC50 in [2] is 194 µM. With `COc1ccc(CNc2nc(Cl)nc3c2ncn3CC(C)C)cc1` [4-methoxybenzylamino; 2-methylpropyl; C1], the IC50 in assay [2] is 173 µM. Turning to `COc1ccc(CNc2nc(Cl)nc3[nH]cnc23)cc1` [4-methoxybenzylamino; H; C1], the IC50 in assay [2] is 207 µM. `COc1ccc(CNc2nc(N(CCO)CCO)nc3c2ncn3C(C)C)cc1` [Compound 3, 2-diethanolamino-6-(4-methoxybenzylamino)-9-isopropylarine]: the “reduced the neointimal area” value in [8] (Figure 1, acute local delivery, saline vehicle alone 6%) was “about 88%”. In assay [7] (setting [13]), the IC50 stood at 0.4 µg/mL (≈ 0.999 µM). `CC(C)n1cnc2c(Nc3ccc(-c4ccccc4)cc3)nc(N(CCO)CCO)nc21` [Compound 6, 2-diethanolamino-6-(4-phenylanilino)-9-isopropylpurine]: the IC50 in assay [4] is 1 µg/mL (≈ 2.31 µM); in assay [5], 4 µg/mL (≈ 9.25 µM); in assay [9], 4 µg/mL (≈ 9.25 µM); in assay [6] it was 7 µg/mL (≈ 16.2 µM); in assay [7] (VSMC, PupVSMC cells, Table 8, read-out: IC50 (µg/ml) for Inhibition of Cell Proliferation Pup VS MC), 1 µg/mL (≈ 2.31 µM); in [10], 0.5 µg/mL (≈ 1.16 µM). Besides, the IC50 in assay [11] amounted to 4 µg/mL (≈ 9.25 µM). `CSc1ccc(Nc2nc(N(CCO)CCO)nc3c2ncn3C(C)C)cc1` [Compound 6A, 2-diethanolamine-6-(4-methylmercapto) anilino-9-isopropylpurine] gave an IC50 in assay [1] of 12.4 µM. With `Cn1cnc2c(NCc3ccccc3)nc(NCCO)nc21` [olomoucine, 2-(hydroxyethylamino)-6-benzylamino-9-methylpurine], the “inhibits cell proliferation at an approximate concentration” value in [12] is approximately 50 µg/mL. Consider `CC(C)n1cnc2c(NCc3ccc(Cl)cc3)nc(NCCN)nc21` [{2-[(2-aminoethyl)amino]-9-(methylethyl)purin-6-yl}[(4-chlorophenyl)methyl]amine], for which, in assay [8] (acute local delivery, dose of 5 mg/mL, saline alone 6%), the “reducing the neointimal area” value is listed as “about 90%”. In addition, the IC50 in assay [7] (setting [13]) was 0.1 µg/mL (≈ 0.278 µM). For the molecule `CC(N)CNc1nc(NCc2ccc(Cl)cc2)c2ncn(C(C)C)c2n1` (centres unmarked) [{2-[(2-aminopropyl)amino]-9-(methylethyl)purin-6-yl}[(4-chlorophenyl)methyl]amine], the IC50 in [7] (setting [13]) is 0.1 µg/mL (≈ 0.267 µM).
